Measured values from ChEMBL document CHEMBL1201862, “PubChem BioAssay data set” (2004).
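Test compounds were applied to cells in 96-well plates for 48 hours at 5 doses. GI50 = concentration required for 50% inhibition of growth.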 Calls of active or inactive are those of the source. Cut-off read from the data, not from the text of the source: active = GI50 up to about 1.1 µM and inactive = higher.

How the values were obtained:
Assay in all cases: NCI-60 cell line screen, 48 h
[1] = system: ACHN
[2] = system: COLO 205
[3] = system: HT-29
[4] = system: K562
[5] = system: KM12
[6] = system: LOX IMVI
[7] = system: Malme-3M
[8] = system: NCI-H226
[9] = system: NCI-H23
[10] = system: NCI-H460
[11] = system: OVCAR-8
[12] = system: SF-295
[13] = system: SF-539
[14] = system: SK-OV-3
[15] = system: UACC-257
[16] = system: UO-31
[17] = system: HCT-116

Measured: GI50

C[C@]12C/C(=C/O)C(=O)C(O)=C1CC[C@@H]1C2CC[C@@]2(C)C1CC[C@@H]2O (stereo partly specified)
inactive: [1] 27.8 µM | [2] 21.2 µM | [3] 25.3 µM | [4] 22.3 µM | [5] 25.6 µM | [6] 12 µM | [7] 20.8 µM | [8] 19.6 µM | [9] 17.4 µM | [10] 21.8 µM | [11] 27.1 µM | [12] 26.7 µM | [13] 18.7 µM | [14] 27.5 µM | [15] 22.4 µM | [16] 16.3 µM

Cc1cc(N(CCC#N)CCC#N)ccc1/C=C/C(=O)Nc1ccccc1Cl
inactive: [1] > 100 µM | [2] > 100 µM | [17] > 100 µM | [3] > 100 µM | [4] > 100 µM | [5] > 100 µM | [6] > 100 µM | [7] > 100 µM | [8] > 100 µM | [9] > 100 µM | [10] > 100 µM | [11] > 100 µM | [12] > 100 µM | [13] > 100 µM | [14] > 100 µM | [15] > 100 µM | [16] > 100 µM

COc1cc(CC2c3cc(OC)c(OC)cc3CCN2C)c(Oc2cc3c(cc2OC)-c2c(OC)c(OC)c(OC)c4c2C(C3)N(C)CC4)cc1OC (stereo unspecified)
inactive: [1] 15.8 µM | [2] 7.23 µM | [17] 11.7 µM | [3] 8.77 µM | [4] 2.63 µM | [5] 12.7 µM | [6] 6.73 µM | [7] 2.49 µM | [8] 17.2 µM | [9] 17.1 µM | [10] 15.6 µM | [11] 14.9 µM | [12] 14.6 µM | [13] 13 µM | [14] 19.7 µM | [15] 6.31 µM | [16] 7.93 µM

Cc1cccc(=O)c([O-])c1.Cc1cccc(=O)c([O-])c1.[Bi+3].[Cl-]
inactive: [1] 7.31 µM | [17] 3.33 µM | [3] 11.4 µM | [4] 4.46 µM | [5] 11.6 µM | [6] 9.55 µM | [7] 11.9 µM | [8] 18.1 µM | [9] 10.9 µM | [10] 4.32 µM | [11] 3.72 µM | [12] 10.4 µM | [13] 12 µM | [14] 22.5 µM | [15] 8.32 µM | [16] 11.5 µM

COC(=O)C1=C(O)c2cc(OC)c(OC)c(OC)c2[C@H](c2cc(OC)c(OC)c(OC)c2)C1C(=O)OC (stereo partly specified)
inactive: [1] 46.8 µM | [2] 15.8 µM | [17] 37.6 µM | [3] 22.8 µM | [4] 24.5 µM | [5] 21.9 µM | [6] 41.1 µM | [7] 49.3 µM | [8] 49.3 µM | [9] 31.2 µM | [10] 7.18 µM | [11] 36.4 µM | [12] 13.6 µM | [13] 14.2 µM | [14] 35 µM | [15] 44.4 µM | [16] 41.9 µM

C[C@@H](N[C@H]1CCC[C@@H]1O)c1ccccc1.C[C@@H](N[C@H]1CCC[C@H]1O)c1ccccc1
inactive: [1] > 100 µM | [2] 75.7 µM | [17] 34.9 µM | [3] 38.1 µM | [4] 44.9 µM | [5] 41.4 µM | [6] 34.4 µM | [7] > 100 µM | [8] 19.9 µM | [9] > 100 µM | [10] 37.8 µM | [11] > 100 µM | [12] 40.4 µM | [13] > 100 µM | [14] > 100 µM | [15] > 100 µM | [16] 50.5 µM

COc1ccc(OC)c(CC(C)N)c1 (stereo unspecified)
inactive: [1] > 100 µM | [2] > 100 µM | [17] > 100 µM | [3] > 100 µM | [4] > 100 µM | [5] > 100 µM | [6] > 100 µM | [7] > 100 µM | [8] > 100 µM | [9] > 100 µM | [10] > 100 µM | [11] > 100 µM | [12] > 100 µM | [13] > 100 µM | [14] > 100 µM | [15] > 100 µM | [16] > 100 µM

CCCc1ccc(NCc2cc(OC)c(OC)c(OC)c2)cc1
inactive: [1] 30.6 µM | [17] 24.7 µM | [3] 23.6 µM | [4] 12.1 µM | [5] 23.1 µM | [6] 15.7 µM | [7] 19.4 µM | [9] 22 µM | [10] 55 µM | [11] 35.3 µM | [13] 28.3 µM | [14] 22.3 µM | [15] 22.4 µM | [16] 24.7 µM
